The record followed here is publication PMC3510438, “The transmembrane tyrosines Y56, Y91 and Y167 play important roles in determining the affinity and transport rate of the rabbit proton-coupled peptide transporter PepT1” (The International Journal of Biochemistry & Cell Biology, 2009).

Numbering of substitutions follows the chain as printed. Where a SMILES comes first, the peptide text is derived from it.

Assay [1] has as its target T1, Y345F-rPepT1 (Oryctolagus cuniculus, UniProt P36836, Y345F).
T1 construct: expressed in transfected cells; host or cells: Xenopus laevis oocytes injected with cRNA
T1 sequence (P36836 1-707 Y345F): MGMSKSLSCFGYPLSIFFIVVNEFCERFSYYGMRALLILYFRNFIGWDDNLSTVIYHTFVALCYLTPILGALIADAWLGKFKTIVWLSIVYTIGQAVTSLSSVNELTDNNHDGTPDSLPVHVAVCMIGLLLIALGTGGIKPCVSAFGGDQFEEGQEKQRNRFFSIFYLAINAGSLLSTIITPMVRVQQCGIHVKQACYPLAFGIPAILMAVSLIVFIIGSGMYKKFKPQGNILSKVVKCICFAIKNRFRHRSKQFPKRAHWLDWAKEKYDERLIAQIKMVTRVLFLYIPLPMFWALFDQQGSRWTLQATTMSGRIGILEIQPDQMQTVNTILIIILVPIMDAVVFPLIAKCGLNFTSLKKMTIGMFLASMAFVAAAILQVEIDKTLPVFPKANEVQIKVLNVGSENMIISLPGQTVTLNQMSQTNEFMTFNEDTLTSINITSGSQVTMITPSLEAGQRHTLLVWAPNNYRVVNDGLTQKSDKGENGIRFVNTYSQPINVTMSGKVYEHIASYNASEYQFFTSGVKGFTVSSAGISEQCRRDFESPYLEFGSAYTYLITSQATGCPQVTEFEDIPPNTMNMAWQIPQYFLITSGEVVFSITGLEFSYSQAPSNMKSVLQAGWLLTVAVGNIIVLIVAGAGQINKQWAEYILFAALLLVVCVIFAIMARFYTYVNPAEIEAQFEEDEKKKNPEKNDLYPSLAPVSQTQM
Briefly: Competition of [3H]-D-Phe-L-Gln uptake into Xenopus oocytes, Ki. It is filed as cell-based, rabbit. The conditions noted are these: against 0.4 μM [3H]-D-Phe-L-Gln uptake. The method, then: (§1) rPepT1 constructs were linearised with XbaI (New England Biolabs, UK) and cRNA generated by in vitro transcription (T7 mMessage mMachine, Ambion, Cambridgeshire, UK). Xenopus laevis oocytes were obtained under MS222 anaesthesia (0.2%, w/v) in accordance with the UK Animals (Scientific Procedures) Act, 1986, and maintained at 18 °C in modified Barth's medium (88 mM NaCl, 1 mM KCl, 0.82 mM MgSO4, 2.4 mM NaHCO3, 0.42 mM CaCl2, 10 mM Hepes, 5 mM sodium pyruvate, 50 μg ml^−1 gentamicin (Fluka, Poole, UK), adjusted to pH 7.6 with 1 M NaOH). Transport measurements were performed at least 72 h after micro-injection of oocytes with 27nl cRNA (1 μg/μl), with medium changed daily.
(§2) Uptake of [^3H]-D-Phe-L-Gln (17.4 Ci/mmole, custom synthesised, Cambridge Research Biochemicals, Stockton-on-Tees, UK) was performed as previously described ([Meredith, 2004]). Briefly, 5 oocytes were incubated in 100 μl of uptake medium (95 mM NaCl, 2 mM KCl, 1 mM CaCl2, 0.42 mM MgCl2, 10 mM Tris/Hepes pH 7.4 or Tris/Mes pH 5.5) with tracer (0.4 μM) [^3H]-D-Phe-L-Gln. After incubation, the oocytes were washed sequentially five times in 1 ml of ice-cold 120 mM NaCl solution, lysed individually with 100 μl 2% (w/v) SDS and liquid scintillation counted. As a control non-injected oocytes were also incubated in uptake medium with D-Phe-L-Gln as above.
(§3) The affinity of wild-type and mutant rPepT1 transporters were assessed by competition studies with 0.4 μM [^3H]-D-Phe-L-Gln and Gly-L-Gln present in the uptake medium in concentrations from 0 to 2 mM using the protocol above, and the Ki calculated using the method of [Deves and Boyd (1989)].

In assay [2] the target is T2, Y12F-rPepT1 (Oryctolagus cuniculus, UniProt P36836, Y12F).
T2 construct: expressed in transfected cells; host or cells: Xenopus laevis oocytes injected with cRNA
T2 sequence (P36836 1-707 Y12F): T1 sequence (P36836 1-707 Y345F) with Y12F, F345Y
Described as above. Format: cell-based, rabbit. The conditions noted are these: against 0.4 μM [3H]-D-Phe-L-Gln uptake. The method, then: as §1, §2, §3

As for `NCC(=O)N[C@@H](CCC(N)=O)C(=O)O` [Gly-L-Gln] (H-Gly-Gln-OH), the Ki was determined as 320 ± 70 µM in assay [1] (pHout 5.5), 180 ± 50 µM in assay [1] (pHout 7.4), 220 ± 20 µM in assay [2] (pHout 5.5) and 90 ± 20 µM in assay [2] (pHout 7.4).

For orientation: Ki means the equilibrium dissociation constant of an inhibitor or competing ligand from its target. Higher therefore signals lower affinity.
